The text below walks through data of ChEMBL document CHEMBL1201862, “PubChem BioAssay data set” (2004).

The target of one experiment is Cytochrome P450 2C19 (Homo sapiens, UniProt P33261). As to the kind of experiment: Cytochrome panel assay with activity outcomes. Panel member name: p450-cyp2c19 Compounds with AC50 equal or less than 10 uM are considered active. It is filed as functional. The following applies: read-out: AC50.
Another experiment concerns the target Cytochrome P450 3A4 (Homo sapiens, UniProt P08684).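 Note: CYP3A4 tested as one member of a cytochrome P450 panel screen.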

Sequence of Cytochrome P450 2C19 (P33261 whole entry): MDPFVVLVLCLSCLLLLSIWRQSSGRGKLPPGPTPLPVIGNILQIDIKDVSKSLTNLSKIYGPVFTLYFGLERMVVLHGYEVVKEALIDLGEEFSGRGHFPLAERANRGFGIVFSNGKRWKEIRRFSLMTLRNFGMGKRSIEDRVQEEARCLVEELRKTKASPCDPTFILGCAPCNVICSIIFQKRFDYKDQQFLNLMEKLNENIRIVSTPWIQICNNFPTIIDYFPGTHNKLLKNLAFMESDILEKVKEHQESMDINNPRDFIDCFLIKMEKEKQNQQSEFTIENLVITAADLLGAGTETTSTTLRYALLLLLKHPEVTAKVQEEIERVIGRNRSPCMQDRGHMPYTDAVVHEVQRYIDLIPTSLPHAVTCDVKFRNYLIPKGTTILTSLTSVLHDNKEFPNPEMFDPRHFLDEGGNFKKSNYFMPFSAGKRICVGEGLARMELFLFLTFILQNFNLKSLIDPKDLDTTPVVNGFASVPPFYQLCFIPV
Sequence of Cytochrome P450 3A4 (P08684 whole entry): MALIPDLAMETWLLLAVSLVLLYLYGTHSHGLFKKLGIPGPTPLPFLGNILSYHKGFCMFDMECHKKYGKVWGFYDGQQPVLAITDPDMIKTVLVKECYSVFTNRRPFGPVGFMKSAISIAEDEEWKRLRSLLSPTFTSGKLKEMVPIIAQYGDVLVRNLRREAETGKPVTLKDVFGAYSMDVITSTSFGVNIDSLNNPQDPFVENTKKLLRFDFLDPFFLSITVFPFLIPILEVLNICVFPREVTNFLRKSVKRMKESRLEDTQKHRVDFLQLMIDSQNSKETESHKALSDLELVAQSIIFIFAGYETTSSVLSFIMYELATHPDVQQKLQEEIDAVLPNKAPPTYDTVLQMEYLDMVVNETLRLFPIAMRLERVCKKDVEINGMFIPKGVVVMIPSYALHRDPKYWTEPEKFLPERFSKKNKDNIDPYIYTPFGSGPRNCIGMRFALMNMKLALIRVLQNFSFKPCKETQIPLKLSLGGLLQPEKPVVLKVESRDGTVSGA

Consider `COc1cc(CNCCc2ccccc2)ccc1OCC(=O)NC(C)(C)C`, for which, at Cytochrome P450 2C19, the AC50 was 28.2 µM (inconclusive).
Consider `O=C(Nc1cccc(F)c1)Nc1ccccn1`, for which the AC50 on Cytochrome P450 2C19 is 17.8 µM (inconclusive).
In the case of `COc1cccc(Cn2c(=O)c(C)nc3cnc(N4CCN(C)CC4)nc32)c1`, the AC50 at Cytochrome P450 2C19 was 39.8 µM (inconclusive).
For the compound `COc1ncc2nc(-c3cc(F)cc(F)c3)c(=O)n(C[C@H]3CCCO3)c2n1`, the AC50 at Cytochrome P450 3A4 was 25.1 µM (inconclusive); on Cytochrome P450 2C19, 31.6 µM (inconclusive).
For `O=C(Nc1cccc(F)c1)N1CC[C@@]2(CCCN(C(=O)c3cc(C(F)(F)F)cc(C(F)(F)F)c3)C2)C1`, the AC50 at Cytochrome P450 2C19 is 25.1 µM (inconclusive).
Take `CCn1c(S)nnc1-c1ccc2ncccc2c1`: the AC50 is 3.98 µM (inconclusive) on Cytochrome P450 3A4 and 20 µM (inconclusive) on Cytochrome P450 2C19.
Regarding `O=C(Nc1cccc(F)c1)N1CCCC2(CCN(C(=O)c3cnccn3)CC2)C1`, the AC50 at Cytochrome P450 2C19 was 20 µM (inconclusive).
On the same count and under the same terms, as for `COc1ccc(C(=O)N2CCC3(CCCN(C(=O)Nc4cccc(F)c4)C3)CC2)cc1`, the figure is 39.8 µM (inconclusive); as for `CSc1nc(C)c2c(n1)N(c1ccc(C(F)(F)F)cc1)CC2`, 11.2 µM (inconclusive).
As to `CC1=C(C(=O)OCc2ccccc2)C(c2ccc(Cl)cc2)NC(=O)N1CCCCCC(=O)O` (stereo not drawn), the AC50 was 10 µM (inconclusive) at Cytochrome P450 3A4 and 39.8 µM (inconclusive) on Cytochrome P450 2C19.
